Patent US20250320184A1 (SIRONAX LTD., priority 2022, published 2025)
pIC50: −log10 of the molar value.

These compounds were tested against T1, SARM1 (50-724) (Homo sapiens, UniProt Q6SZW1) (assay: biochemical).
T1 sequence (Q6SZW1 50-724): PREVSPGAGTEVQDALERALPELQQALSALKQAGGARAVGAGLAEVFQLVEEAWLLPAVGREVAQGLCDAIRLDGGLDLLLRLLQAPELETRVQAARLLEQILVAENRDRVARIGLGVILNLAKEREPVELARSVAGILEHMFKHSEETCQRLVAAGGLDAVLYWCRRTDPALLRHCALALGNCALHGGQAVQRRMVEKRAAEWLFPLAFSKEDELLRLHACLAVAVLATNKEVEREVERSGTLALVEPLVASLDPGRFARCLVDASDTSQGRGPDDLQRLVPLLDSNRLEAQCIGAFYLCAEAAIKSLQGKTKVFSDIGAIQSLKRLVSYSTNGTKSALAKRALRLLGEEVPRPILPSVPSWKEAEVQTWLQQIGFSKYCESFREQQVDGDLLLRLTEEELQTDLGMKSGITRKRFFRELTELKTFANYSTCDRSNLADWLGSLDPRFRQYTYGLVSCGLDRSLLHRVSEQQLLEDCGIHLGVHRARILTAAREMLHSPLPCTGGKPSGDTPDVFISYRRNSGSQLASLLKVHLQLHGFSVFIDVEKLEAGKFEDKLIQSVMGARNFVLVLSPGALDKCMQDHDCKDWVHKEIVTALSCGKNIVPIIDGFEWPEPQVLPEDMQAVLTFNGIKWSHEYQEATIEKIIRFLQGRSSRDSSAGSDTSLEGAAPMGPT
Procedure: An enzymatic assay was performed in a 384-well plate using Dulbecco's phosphate-buffered saline (PBS) as the reaction buffer. […] The reaction was initiated by adding a mixture of 200 μM nicotinamide mononucleotide (NMN) as activator and 100 μM NAD^+ as substrate. After 1 h of incubation at room temperature, the reaction was terminated with 10 times volume of 70% acetonitrile, then centrifuged at 3800 rpm for 10 min.

pIC50	SMILES
6.30 to 7.00	CC(Nc1ccc2c(c1)NC(=O)OC2)c1cccc(Cl)c1Cl (centres unmarked) [Example 181, 7-((1-(2,3-dichlorophenyl)ethyl)amino)-1,4-dihydro-2H-benzo[d][1,3]oxazin-2-one]
> 7.00	Cc1c2ccc(NC(C)c3snc(Cl)c3Cl)cc2nn1CC(N)=O (single isomer, unassigned) [Compound 341A]
> 7.00	O=S(=O)(Nc1ccc2c(Cl)n[nH]c2c1)c1cccc(Cl)c1Cl [Compound 78, 2,3-dichloro-N-(3-chloro-1H-indazol-6-yl)benzenesulfonamide]
> 7.00	O=C1NC(CO)CCc2ccc(NS(=O)(=O)c3cccc(Cl)c3Cl)cc21 (racemic) [Compound 304A, 2,3-dichloro-N-(3-(hydroxymethyl)-1-oxo-2,3,4,5-tetrahydro-1H-benzo[c]azepin-8-yl)benzenesulfonamide]
< 6.00	Cc1cccc(C(C)Nc2ccc3c(c2)C(=O)NCC3)c1F (racemic) [Example 99, 7-((1-(2-fluoro-3-methylphenyl)ethyl)amino)-3,4-dihydroisoquinolin-1(2H)-one]
> 7.00	Cn1ccc(C(=O)N2CC(C)(C)c3ccc(NS(=O)(=O)c4cccc(Cl)c4Cl)cc32)n1 [Compound 295, 2,3-dichloro-N-(3,3-dimethyl-1-(1-methyl-1H-pyrazole-3-carbonyl)indolin-6-yl)benzenesulfonamide]
6.30 to 7.00	Cn1cnc2cc(NS(=O)(=O)c3cccc(Cl)c3Cl)ccc21 [Compound 77, 2,3-dichloro-N-(1-methyl-1H-benzo[d]imidazol-5-yl)benzenesulfonamide]
< 6.00	Cc1c2c(F)cc(NC(C)c3nc(Cl)c(Cl)s3)cc2nn1CC(N)=O (single isomer, unassigned) [Compound 390]
6.30 to 7.00	N#CCn1ccc2ccc(NS(=O)(=O)c3cccc(Cl)c3Cl)cc2c1=O [Compound 80, 2,3-dichloro-N-(2-(cyanomethyl)-1-oxo-1,2-dihydroisoquinolin-7-yl)benzenesulfonamide]
6.30 to 7.00	O=C1Cc2ccc(NS(=O)(=O)c3cccc(Cl)c3Cl)cc2CN1 [Compound 217, 2,3-dichloro-N-(3-oxo-1,2,3,4-tetrahydroisoquinolin-7-yl)benzenesulfonamide]
< 6.00	Cc1cc(F)cc(C2(Nc3ccc4c(c3)C(=O)N(C)CC4)COC2)c1 [Example 175, 7-((3-(3-fluoro-5-methylphenyl)oxetan-3-yl)amino)-2-methyl-3,4-dihydroisoquinolin-1(2H)-one]
> 7.00	CCC(Nc1ccc2c(OC)n[nH]c(=O)c2c1)c1nc(Cl)c(Cl)s1 (racemic) [Compound 272, 7-((1-(4,5-dichlorothiazol-2-yl)propyl)amino)-4-methoxyphthalazin-1(2H)-one]
< 6.00	Cc1c(F)cccc1S(=O)(=O)Nc1ccc2c(c1)CCC(=O)N2 [Compound 8, 3-fluoro-2-methyl-N-(2-oxo-1,2,3,4-tetrahydroquinolin-6-yl)benzenesulfonamide]
< 6.00	O=C1NCCc2ccc(NS(=O)(=O)c3cc(F)cc(F)c3F)cc21 [Compound 51, 2,3,5-trifluoro-N-(1-oxo-3,4-dihydro-2H-isoquinolin-7-yl)benzenesulfonamide]
> 7.00	CC1(C)CC(C#N)c2cc(NS(=O)(=O)c3cccc(Cl)c3Cl)ccc21 (racemic) [Compound 298, 2,3-dichloro-N-(3-cyano-1,1-dimethyl-2,3-dihydro-1H-inden-5-yl)benzenesulfonamide]
6.30 to 7.00	CC(Nc1ccc2cc[nH]c(=O)c2c1)c1ccccc1Cl (racemic) [Example 110, 7-((1-(2-chlorophenyl)ethyl)amino)isoquinolin-1(2H)-one]
> 7.00	[2H]C(C)(Nc1ccc2c(C)n(CC(N)=O)nc2c1)c1nc(Cl)c(Cl)s1 (single isomer, unassigned) [Compound 377]
6.30 to 7.00	CC(Nc1ccc2cc[nH]c(=O)c2c1)c1nc(Cl)sc1Cl (racemic) [Compound 190, 7-((1-(2,5-dichlorothiazol-4-yl)ethyl)amino)isoquinolin-1(2H)-one]
6.30 to 7.00	CC(Nc1ccc2c(c1)C(=O)NCC2)c1cccc(Cl)c1Cl (racemic) [Example 100, 7-((1-(2,3-dichlorophenyl)ethyl)amino)-3,4-dihydroisoquinolin-1(2H)-one]
> 7.00	CC(Nc1ccc2cc[nH]c(=O)c2c1)c1ccc(F)c(Cl)c1Cl (racemic) [Example 203, 7-[1-(2,3-dichloro-4-fluoro-phenyl)ethylamino]-2H-isoquinolin-1-one]
6.00 to 6.30	CC(Nc1ccc2c(c1)C(=O)NCC2)c1ccc(Cl)c(Cl)c1 (racemic) [Example 104, 7-((1-(3,4-dichlorophenyl)ethyl)amino)-3,4-dihydroisoquinolin-1(2H)-one]

pIC50	SMILES
< 6.00	CC(Nc1ccc2nc[nH]c(=O)c2n1)c1c(F)ccc(Cl)c1Cl (single isomer, unassigned) [Compound 388]
> 7.00	CC(Nc1ccc2c(c1)C(=O)N(C(C)C(N)=O)C2(C)C)c1nc(Cl)c(Cl)s1 (mixture of isomers) [Compound 334, 2-(5-((1-(4,5-dichlorothiazol-2-yl)ethyl)amino)-1,1-dimethyl-3-oxoisoindolin-2-yl)propanamide]
6.30 to 7.00	Cc1cc(F)cc(C(Nc2ccc3c(c2)C(=O)NCC3)C(F)(F)F)c1 (centres unmarked) [Example 174, 7-((2,2,2-trifluoro-1-(3-fluoro-5-methylphenyl)ethyl)amino)-3,4-dihydroisoquinolin-1(2H)-one]
> 7.00	CC1(C)CN(C(=O)C2CCOCC2)c2cc(NS(=O)(=O)c3cccc(Cl)c3Cl)ccc21 [Compound 284, 2,3-dichloro-N-[3,3-dimethyl-1-(tetrahydropyran-4-carbonyl)indolin-6-yl]benzenesulfonamide]
< 6.00	CC(Nc1ccc2c(c1)C(=O)NC2)c1cccc(Cl)c1Cl (racemic) [Example 120, 6-((1-(2,3-dichlorophenyl)ethyl)amino)isoindolin-1-one]
> 7.00	Cc1n[nH]c(=O)c2cc(NC(C)c3c(Cl)ccc(F)c3Cl)ccc12 (racemic) [Example 222, 7-((1-(2,6-dichloro-3-fluorophenyl)ethyl)amino)-4-methylphthalazin-1(2H)-one]
> 7.00	CC(Nc1ccc2ccn(CC(N)=O)c(=O)c2c1)c1nc(Cl)c(Cl)s1 (racemic) [Compound 290, 2-(7-((1-(4,5-dichlorothiazol-2-yl)ethyl)amino)-1-oxoisoquinolin-2(1H)-yl)acetamide]
< 6.00	Cc1ccc(C)c(S(=O)(=O)Nc2ccc3c(c2)C(=O)NCC3)c1 [Example 2A, 2,5-dimethyl-N-(1-oxo-1,2,3,4-tetrahydroisoquinolin-7-yl)benzenesulfonamide]
> 7.00	Cc1nc(C(C)Nc2ccc3c(C)n(CC(N)=O)nc3c2)sc1Cl (racemic) [Compound 343, 2-(6-((1-(5-chloro-4-methylthiazol-2-yl)ethyl)amino)-3-methyl-2H-indazol-2-yl)acetamide]
> 7.00	CC1(C)C(=O)N(CCCO)c2cc(NS(=O)(=O)c3cccc(Cl)c3Cl)ccc21 [Compound 273]
6.30 to 7.00	CC(Nc1ccc2ncn(C)c(=O)c2c1)c1cccc(Cl)c1Cl (racemic) [Example 133, 6-((1-(2,3-dichlorophenyl)ethyl)amino)-3-methylquinazolin-4(3H)-one]
> 7.00	O=C1Nc2cc(NS(=O)(=O)c3cccc(Cl)c3Cl)ccc2C12CC2 [Compound 208, 2,3-dichloro-N-(2′-oxospiro[cyclopropane-1,3′-indolin]-6′-yl)benzenesulfonamide]
6.00 to 6.30	CCCC(Nc1ccc2c(c1)C(=O)NCC2)c1cc(C)cc(F)c1 (racemic) [Example 125, 7-((1-(3-fluoro-5-methylphenyl)butyl)amino)-3,4-dihydroisoquinolin-1(2H)-one]
> 7.00	O=S(=O)(Nc1ccc2cc[nH]c2c1)c1cccc(Cl)c1Cl [Compound 11, 2,3-dichloro-N-(1H-indol-6-yl)benzenesulfonamide]
6.00 to 6.30	CC(Nc1ccc2c(c1)NC(=O)CC2)c1cccc(Cl)c1Cl (racemic) [Example 121, 7-((1-(2,3-dichlorophenyl)ethyl)amino)-3,4-dihydroquinolin-2(1H)-one]
< 6.00	CC1(C)CCCCN1S(=O)(=O)Nc1ccc2c(c1)C(=O)NCC2 [Example 168, 2,2-dimethyl-N-(1-oxo-1,2,3,4-tetrahydroisoquinolin-7-yl)piperidine-1-sulfonamide]
< 6.00	CC(Nc1cc(F)c2ncn(CC(N)=O)c(=O)c2c1)c1nc(Cl)c(Cl)s1 (single isomer, unassigned) [Compound 323A]
6.00 to 6.30	CC(Nc1ccc2ccn(Cc3ccccc3)c(=O)c2c1)c1cccc(Cl)c1Cl (racemic) [Example 142, 2-benzyl-7-((1-(2,3-dichlorophenyl)ethyl)amino)isoquinolin-1(2H)-one]
6.30 to 7.00	Cc1ccc2ccc(NS(=O)(=O)c3cccc(Cl)c3Cl)cc2n1 [Compound 71, 2,3-dichloro-N-(2-methylquinolin-7-yl)benzenesulfonamide]
> 7.00	O=C1NCCCc2ccc(NS(=O)(=O)c3cccc(Cl)c3Cl)cc21 [Compound 41, 2,3-dichloro-N-(1-oxo-2,3,4,5-tetrahydro-1H-benzo[c]azepin-8-yl)benzenesulfonamide]
